Results on six molecules are retold here after patent publication US12358949B2, “Defensin fragments for use in therapy or prophylaxis” (priority 2019, dated 2025).

Entries after “also recorded” stand apart in the source; their conditions may differ. Like-named read-outs stand apart in the source and are kept apart here. Where a SMILES comes first, the peptide text is derived from it. Bridges are numbered along the chain shown (N, C = ends).

Holding throughout (format): cell-based
The test system of assay [1] is pathogenic bacteria. The assay is described as follows: Radial diffusion assay, HD-5 fragments. The settings on record: pathogenic Gram-positive and Gram-negative bacteria (FIG. 4). The method, then: A heat map system with high activity (inhibition zone in the RDA>5 mm), low activity (2.5 to 5 mm) and no activity (2.5 mm) was used.
(§1) Antimicrobial activity of all peptides was tested with a modified radial diffusion assay from Lehrer et al^12 Shortly described, log-phase bacteria grew (anaerobic bacteria with AnaeroGen, Oxoid in anaerobic jars) in liquid tryptic soy broth (TSB) (Becton Dickinson). After several wash steps in 10 mM sodium phosphate buffer pH 7.4, 4×10^6 cfu/ml was used per assay. To measure the antibacterial effect of the identified peptide fragments, the bacteria were incubated in 10 mM sodium phosphate (pH 7.4) containing 0.3 mg/ml TSB powder and 1% (w/v) low EEO-agarose (Applichem). Peptide fragments were then pipetted into punched wells and allowed to diffuse for 3 hours at 37° C. After that a nutrient rich gel with 6% TSB (w/v) and 1% agarose in 10 mM sodium phosphate buffer was poured on top of the first gel. After 24 hours the inhibition zones were measured. […] All experiments were carried out at least three times.

Assay [2] relates to P. aeruginosa ATCC 27853. The method, then: (§2) The tested bacteria were incubated overnight in 1×TSB broth, centrifuged and washed with 10 mM sodium phosphate buffer containing 1% (w/v) TSB broth. 5×10^5 cfu/ml bacteria were mixed with different peptide concentrations in 10 mM sodium phosphate buffer with 1% (w/v) TSB (final volume 100 μl) and incubated for 2 hours at 37° C. Afterwards we added 100 μl 2×TSB broth and we measured the optical density at 600 nm (Spark 10M, Tecan, Austria). Bacterial growth was monitored for 12 hours, growing at 37° C. with shaking during the measurements each 30 minutes, except for Akkermansia muciniphila which were incubated at 37° C. in an anaerobic jar and growth was measured after 72 hours.

For assay [3], the system named is A. baumannii 4-MRGN. The protocol:
as §2

In assay [4] the test system is E. faecium 475747. The method, then: as §2
Assay [5] has as its system commensal bacteria. The assay is described as follows: Radial diffusion assay, HD-5 fragments. Particulars: 4 μg fragment, 2 μg full-length peptide; commensal bacteria (FIG. 3). The method, then: In the RDA 2 μg of the full length and 4 μg of each fragment were used. An inhibition zone greater than 5 mm was determined as high activity, between 2.5 and 5 mm as low activity and 2.5 mm were the diameter of the punched well and therefore no activity.
as §1

For assay [6], the system named is A. baumannii DSM 30007. The protocol:
as §2

Assay [7] relates to S. aureus USA300. The method, then: as §2
Assay [8] concerns E. coli JM83. The protocol: as §2
In assay [9] the test system is S. aureus ATCC 25923. The protocol: as §2
In assay [10] the test system is Y. enterocolitica. The method, then:
as §2

Assay [11] concerns E. faecium DSM 20477. The protocol:
as §2

Assay [12] concerns P. aeruginosa XPAT1. The method, then: as §2
The subject of assay [13] is K. pneumoniae 3-MRGN. The settings on record: K. pneumoniae 3-MRGN; after 12 hours. The protocol:
as §2

For assay [14], the system named is P. aeruginosa 4-MRGN. The protocol: as §2
For assay [15], the system named is P. aeruginosa XPAT2. The method, then:
as §2

Assay [16] deals with K. pneumoniae DSM 30104. The protocol: as §2
The subject of assay [17] is P. aeruginosa PAO1. The protocol: as §2
The test system of assay [18] is C. albicans 529L.

Turning to `CC[C@H](C)[C@H](NC(=O)[C@H](CCC(=O)O)NC(=O)[C@H](CS)NC(=O)[C@@H](NC(=O)CNC(=O)[C@H](CO)NC(=O)[C@H](CC(C)C)NC(=O)[C@H](CO)NC(=O)[C@H](CCC(=O)O)NC(=O)[C@H](CCCNC(=N)N)NC(=O)[C@@H](NC(=O)[C@H](C)NC(=O)[C@H](CS)NC(=O)[C@H](CCCNC(=N)N)NC(=O)CNC(=O)[C@@H](N)[C@@H](C)O)[C@@H](C)O)C(C)C)C(=O)N[C@@H](CO)C(=O)NCC(=O)N[C@@H](CCCNC(=N)N)C(=O)N[C@@H](CC(C)C)C(=O)N[C@@H](Cc1ccc(O)cc1)C(=O)N[C@@H](CCCNC(=N)N)C(=O)N[C@@H](CC(C)C)C(=O)N[C@@H](CS)C(=O)N[C@@H](CS)C(=O)N[C@@H](CCCNC(=N)N)C(=O)O` [HD-57-32] (H-TGRCATRESLSGVCEISGRLYRLCCR-OH; N-terminus and C-terminus assumed), the “antimicrobial activity in radial diffusion assay” value (from here on “antimicrobial activity”) in [1] is recorded as “strong effect on the growth of every tested bacterium”; in assay [5] it was “exhibited antimicrobial properties, albeit to a lesser extent than HD-51-9”. Further, the MIC – broadly, the least concentration at which growth counts as inhibited – in assay [2] (ATCC 27853, 12 h) stood at 50 µM; in [2] (P. aeruginosa ATCC 27853, after 12 hours, listed as 7-32), 144.5 µg/mL; in assay [3] (4-MRGN, 12 h), 25 µM; in [3] (A. baumannii 4-MRGN, after 12 hours, listed as 7-32), 72.25 µg/mL; in assay [4] (475747, 12 h), 25 µM; in [4] (E. faecium 475747, after 12 hours, listed as 7-32) it was 72.2 µg/mL.
For the molecule “CATRESLSGVCEISGRLY (listed as Homo sapiens) [HD-510-27, HD-5 fragment 10-27]”, the results for the “antimicrobial activity” value in assay [1] and in assay [5] were “inactive” and “did not exhibit measurable activity”, respectively.
Take “LYRLCCR (listed as Homo sapiens) [HD-526-32, HD-5 fragment 26-32]”: the “antimicrobial activity” value in [1] is given as “only minimally active or more selective in terms of different strains”; in assay [5], “exhibited antimicrobial properties, albeit to a lesser extent than HD-51-9”.
In the case of `CC[C@H](C)[C@H](NC(=O)[C@H](CCC(=O)O)NC(=O)[C@H](CS)NC(=O)[C@@H](NC(=O)CNC(=O)[C@H](CO)NC(=O)[C@H](CC(C)C)NC(=O)[C@H](CO)NC(=O)[C@@H](N)CCC(=O)O)C(C)C)C(=O)N[C@@H](CO)C(=O)NCC(=O)N[C@@H](CCCNC(=N)N)C(=O)N[C@@H](CC(C)C)C(=O)N[C@@H](Cc1ccc(O)cc1)C(=O)N[C@@H](CCCNC(=N)N)C(=O)N[C@@H](CC(C)C)C(=O)N[C@@H](CS)C(=O)N[C@@H](CS)C(=O)N[C@@H](CCCNC(=N)N)C(=O)O` [HD-514-32] (H-ESLSGVCEISGRLYRLCCR-OH; N-terminus and C-terminus assumed), the “antimicrobial activity” value in [1] was “inactive”.
As to `CC[C@H](C)[C@@H]1NC(=O)[C@H](CC(C)C)NC(=O)[C@@H]2CSSC[C@@H]3NC(=O)[C@H](CO)NC(=O)[C@@H](NC(=O)[C@@H](N)C(C)C)CSSC[C@@H](C(=O)N[C@H](C(=O)N[C@@H](CCCNC(=N)N)C(=O)N[C@H](C(=O)O)C(C)C)[C@@H](C)O)NC(=O)[C@H](CSSC[C@H](NC(=O)[C@H](Cc4ccccc4)NC(=O)[C@H](C(C)C)NC(=O)[C@H](CC(C)C)NC(=O)[C@H](CCCNC(=N)N)NC3=O)C(=O)N[C@@H](CCCNC(=N)N)C(=O)N[C@@H](CCCNC(=N)N)C(=O)N[C@@H]([C@@H](C)O)C(=O)N[C@@H](CCC(=O)O)C(=O)N[C@@H](CC(C)C)C(=O)N[C@@H](CCCNC(=N)N)C(=O)N[C@@H](C(C)C)C(=O)NCC(=O)N[C@@H](CC(N)=O)C(=O)N2)NC(=O)[C@H](Cc2ccc(O)cc2)NC(=O)[C@H]([C@@H](C)O)NC(=O)[C@H](Cc2ccccc2)NC(=O)[C@H](CO)NC(=O)[C@H](C(C)C)NC(=O)CNC(=O)CNC1=O` [HNP-4fl, reference compound] (H-VCSCRLVFCRRTELRVGNCLIGGVSFTYCCTRV-OH; disulfide 2-30, 4-19, 9-29 (inferred); N-terminus and C-terminus assumed), the MIC in [6] (A. baumannii DSM30007, after 12 hours) came to 11.6 µg/mL; in assay [6] (DSM 30007, 12 h), 3.125 µM; in assay [7] (S. aureus USA300, after 12 hours), 23.2 µg/mL; in assay [7] (USA300, 12 h), 6.25 µM; in [8] (E. coli JM83, after 12 hours), 46.4 µg/mL; in [8] (JM83, 12 h), 12.5 µM. Further, the MIC in assay [2] (ATCC 27853, 12 h) came to 6.25 µM; in [2] (P. aeruginosa ATCC 27853, after 12 hours), 23.2 µg/mL; in assay [9] (ATCC 25923, 12 h) it was 6.25 µM; in assay [9] (S. aureus ATCC25923, after 12 hours), 23.2 µg/mL; in assay [10] (12 h) it was 12.5 µM; in assay [10] (Y. enterocolitica, after 12 hours), 46.4 µg/mL. Moreover, the MIC in assay [11] (DSM 20477, 12 h) was 6.25 µM; in [11] (E. faecium DSM20477, after 12 hours) it was 23.2 µg/mL; in [12] (P. aeruginosa XPAT1, after 12 hours), 46.4 µg/mL; in assay [12] (XPAT1, 12 h) it was 12.5 µM; in [13] it was “>>>”; in assay [14] (4-MRGN, 12 h), 50 µM. Also, the MIC in [14] (P. aeruginosa 4-MRGN, after 12 hours) was 185.8 µg/mL; in assay [15] (P. aeruginosa XPAT2, after 12 hours), 46.4 µg/mL; in assay [15] (XPAT2, 12 h), 12.5 µM; in assay [16] (DSM 30104, 12 h), 100 µM; in [16] (K. pneumoniae DSM30104, after 12 hours), 371.5 µg/mL; in assay [17] (P. aeruginosa PAO1, after 12 hours), 46.4 µg/mL. Also, the MIC amounted to 12.5 µM in assay [17] (PAO1, 12 h); 12.5 µM in assay [3] (4-MRGN, 12 h); 46.4 µg/mL in assay [3] (A. baumannii 4-MRGN, after 12 hours); 3.125 µM in assay [4] (475747, 12 h); 11.6 µg/mL in assay [4] (E. faecium 475747, after 12 hours); 50 µM in [18] (529L, 24 h). In assay [18] (C. albicans 529L, after 24 hours (Table 5)), this molecule yielded an MIC of 185.8 µg/mL.
In the case of `CC[C@H](C)[C@H](NC(=O)[C@H](CCC(=O)O)NC(=O)[C@H](CS)NC(=O)[C@@H](NC(=O)CNC(=O)[C@H](CO)NC(=O)[C@H](CC(C)C)NC(=O)[C@H](CO)NC(=O)[C@H](CCC(=O)O)NC(=O)[C@H](CCCNC(=N)N)NC(=O)[C@@H](NC(=O)[C@H](C)NC(=O)[C@@H](N)CS)[C@@H](C)O)C(C)C)C(=O)N[C@@H](CO)C(=O)NCC(=O)N[C@@H](CCCNC(=N)N)C(=O)N[C@@H](CC(C)C)C(=O)N[C@@H](Cc1ccc(O)cc1)C(=O)N[C@@H](CCCNC(=N)N)C(=O)N[C@@H](CC(C)C)C(=O)N[C@@H](CS)C(=O)N[C@@H](CS)C(=O)N[C@@H](CCCNC(=N)N)C(=O)O` [HD-510-32] (H-CATRESLSGVCEISGRLYRLCCR-OH; N-terminus and C-terminus assumed), the “antimicrobial activity” value in [1] is on record as “only minimally active or more selective in terms of different strains; also recorded: limited to the two Gram-positive bacteria”.
